Earlier results, collected in patent US9050307B2, “Method for the preparation of a levothyroxine solution” (EMP Pharma GmbH, priority 2011, dated 2015).

In the case of `N[C@@H](Cc1cc(I)c(Oc2cc(I)c(O)c(I)c2)c(I)c1)C(=O)[O-].[Na+]` [Levothyroxine sodium, Sodium (2S)-2-amino-3-[4-(4-hydroxy-3,5-diiodophenoxy)-3,5-diiodophenyl]propanoate], the “Solubility in ethanol (96 percent)” value (ethanol (96 percent)) is given as “slightly soluble” and the Solubility in water (water) is given as “very slightly soluble”.
